Experimental findings from ChEMBL document CHEMBL1152283, “Design at the atomic level: generation of novel hybrid biaryloxazolidinones as promising new antibiotics” (Bioorg Med Chem Lett, 2008) are described below.

In experiment [1] the test system is Haemophilus influenzae. The experiment can be described thus: Antimicrobial activity against Haemophilus influenzae 895 (AcrB-KO) by NCCLS method. It is filed as functional.
In a further experiment the test system is Streptococcus pneumoniae. The experiment can be described thus: Antimicrobial activity against Streptococcus pneumoniae 02J1175 expressing mef(A) gene by NCCLS method. In kind it is functional.
Experiment [2] has as its system Haemophilus influenzae. The experiment can be described thus: Antimicrobial activity against Haemophilus influenzae RD1 by NCCLS method. It is filed as functional.
For a further experiment, the system named is Enterococcus faecalis. The experiment can be described thus: Antimicrobial activity against linezolid-resistant Enterococcus faecalis P5 by NCCLS method. It is filed as functional.
Experiment [3] has as its system Escherichia coli. The experiment can be described thus: Inhibition of protein synthesis in Escherichia coli by translation assay.
The test system of the next experiment is Streptococcus pyogenes. The experiment can be described thus: Antimicrobial activity against Streptococcus pyogenes Msr 610 expressing erm(B) gene by NCCLS method. It is filed as functional.
Experiment [4] deals with Escherichia coli. The experiment can be described thus: Inhibition of protein synthesis in Escherichia coli S30 extract by translation assay. It is filed as functional.

In brackets after ≈: the same amount, converted by molar mass. Where only a bound is given, the exact number is not on record here.

A word on the IC50: it is the concentration at which inhibition is half-maximal. As to `CC(=O)NC[C@H]1CN(c2ccc(/C=C/CCCNC(=O)CCc3cccnc3)c(F)c2)C(=O)O1`, the MIC was 8 µg/mL (≈ 17.1 µM) against Haemophilus influenzae [1]; 2 µg/mL (≈ 4.27 µM) against Streptococcus pneumoniae; more than 128 µg/mL with Haemophilus influenzae [2]; 32 µg/mL (≈ 68.3 µM) in the experiment on Enterococcus faecalis; 2 µg/mL (≈ 4.27 µM) against Streptococcus pyogenes. Besides, the IC50 in the experiment with Escherichia coli [3] came out at 16000 nM.

Take `CC(=O)NC[C@H]1CN(c2ccc(-c3ccc(CNC(=O)CCc4cccnc4)cc3)c(F)c2)C(=O)O1`: the MIC in the experiment on Haemophilus influenzae [1] was 2 µg/mL (≈ 4.08 µM); against Streptococcus pneumoniae, 0.5 µg/mL (≈ 1.02 µM); with Haemophilus influenzae [2] it was more than 128 µg/mL; against Enterococcus faecalis, 16 µg/mL (≈ 32.6 µM); in the experiment on Streptococcus pyogenes, 0.5 µg/mL (≈ 1.02 µM). The same molecule had an IC50 in the experiment with Escherichia coli [3] of 580 nM.

In the case of `CC(=O)NC[C@H]1CN(c2ccc(N3CCC(CNC(=O)/C=C/c4c(C)[nH]c(=O)[nH]c4=O)CC3)c(F)c2)C(=O)O1`, the MIC in the experiment with Haemophilus influenzae [1] was 8 µg/mL (≈ 14.7 µM); in the experiment on Streptococcus pneumoniae it was 4 µg/mL (≈ 7.37 µM); in the experiment on Haemophilus influenzae [2], more than 128 µg/mL; with Streptococcus pyogenes, 4 µg/mL (≈ 7.37 µM). In the experiment on Escherichia coli [4], this molecule came in with a half-maximal inhibitory concentration (IC50) of 260 nM.

With `CC(=O)NC[C@H]1CN(c2ccc(-c3ccc(CNC(=O)/C=C/c4c(C)[nH]c(=O)[nH]c4=O)cc3)c(F)c2)C(=O)O1`, the MIC against Haemophilus influenzae [1] was not above 0.25 µg/mL; against Streptococcus pneumoniae it was not above 0.25 µg/mL; in the experiment on Haemophilus influenzae [2], more than 128 µg/mL; against Enterococcus faecalis, 16 µg/mL (≈ 29.9 µM); in the experiment with Streptococcus pyogenes, not above 0.25 µg/mL. This molecule showed a 50% inhibitory concentration (IC50) in the experiment on Escherichia coli [3] of 30 nM.

As to `CC(=O)NC[C@H]1CN(c2ccc(/C=C/CCCNC(=O)/C=C/c3c(C)[nH]c(=O)[nH]c3=O)c(F)c2)C(=O)O1`, the MIC with Haemophilus influenzae [1] is 1 µg/mL (≈ 1.95 µM); against Streptococcus pneumoniae, 1 µg/mL (≈ 1.95 µM); against Haemophilus influenzae [2] it was more than 128 µg/mL; against Enterococcus faecalis, 32 µg/mL (≈ 62.3 µM); in the experiment on Streptococcus pyogenes it was 1 µg/mL (≈ 1.95 µM). The IC50 with Escherichia coli [3] is 30 nM.

In the case of `CC(=O)NC[C@H]1CN(c2ccc(N3CCOCC3)c(F)c2)C(=O)O1` [LINEZOLID], the MIC against Haemophilus influenzae [1] was found to be 8 µg/mL (≈ 23.7 µM); with Haemophilus influenzae [2], 16 µg/mL (≈ 47.4 µM); in the experiment on Enterococcus faecalis, 32 µg/mL (≈ 94.9 µM); in the experiment with Streptococcus pyogenes, 1 µg/mL (≈ 2.96 µM).

`CSC[S@@+]([O-])CC(CO)NC(=O)/C=C/c1c(C)[nH]c(=O)[nH]c1=O` (some centres undefined) [SPARSOMYCIN]: the MIC against Haemophilus influenzae [1] was 8 µg/mL (≈ 22.1 µM); against Streptococcus pneumoniae, 2 µg/mL (≈ 5.53 µM); against Haemophilus influenzae [2] it was 8 µg/mL (≈ 22.1 µM); against Enterococcus faecalis, more than 128 µg/mL; in the experiment with Streptococcus pyogenes, 2 µg/mL (≈ 5.53 µM). In addition, the IC50 with Escherichia coli [3] was not above 20 nM.
